Experimental data published in patent publication US5013546A, “Methods for modulating antibody production in treating patients with AIDS, ARC and other diseases” (Imreg, Inc., priority 1990, dated 1991).

Key:
[1] = tested on: patients with AIDS or ARC with elevated IgG and IgA; experiment: AIDS/ARC patients, effect of amplifier on serum Ig levels; format: in vivo, human; conditions: 50 pg biweekly, protocol of Example 10
Procedure: A group of 14 patients with AIDS or ARC were treated biweekly with a standard dosage of IMREG-1 (Beta-1.0), until six doses were given. All 14 initially had elevated IgG production and 13 also had elevated IgA production.
Data was averaged for the 14 high-IgG and 13 high-IgA patients.
A group of patients with AIDS or ARC are treated biweekly with 50 pg of ZB-4, according to the protocol of Example 10.
A group of patients with AIDS or ARC are treated biweekly with 50 pg of Beta-1.11, according to the protocol of Example 10.
A group of patients with AIDS or ARC are treated biweekly with 50 pg of Beta-1.12, according to the protocol of Example 10.

[2] = per 1 fg of the peptide; cited from earlier work
[3] = tested on: immunoglobulin-producing cells (plaque forming cells) in pokeweed mitogen-exposed PBLs; experiment: RHPFC assay, PWM-stimulated PBLs of a normal subject cultured 6 days with amplifier; format: cell-based, human; conditions: averaged data
Procedure: In order to ascertain whether modulation of B-cell response is appropriate in a particular subject, and to titrate administration of amplifier appropriately for that subject, it is desirable to have a method for assaying the subject's immunoglobulin response. The method described below cultures mitogen-exposed cells in the presence and absence of added amplifier. Then the formation of plaque forming cells (PFCs) is assayed by a reverse hemolytic assay to determine whether and to what extent amplifier modulates formation of PFCs. A dose-dependent amplifier modulation of PFC formation is observed. The PFC assay described hereinafter is a modification of a conventional technique; it is believed that PFC assays have not hitherto been utilized to assess effects of the immunomodulators described herein.
Peripheral blood cell populations (hereinafter PBLs) from test subjects are prepared to isolate mononuclear cells, using conventional methods. The PBLs are adjusted to 10^6 cells/ml in RPM-1640 medium with 25 mM HEPES and L-glutamine (Whittaker Bioproducts), which has been supplemented with 10% heat-inactivated defined fetal bovine serum (Hy-Clone Labs.), 2% PSN Antibiotic (GIBCO Labs., Grand Island, N.Y.) (100×), and 1% extra L-glutamine (GIBCO Labs.) (100×). The resulting PBL mixture is set aside in an ice bucket (4° C.). […]

[4] = tested on: immunoglobulin-producing cells (plaque forming cells) in PWM-activated PBLs; experiment: Modified RHPFC assay, amplifier added after B cells were potentiated (7th day); format: cell-based, human; conditions: amplifier added after potentiation
Procedure: The foregoing protocol 1 was then altered to test the in vitro effect of adding amplifiers Beta-1.0 or Beta-1.11 to the culture after B cells had already been potentiated (differentiated). Therefore, no amplifier was mixed with the PWM-activated cells at the outset, as in Example 1. Instead, at the stage where 1.12% agarose and Protein A-SRBC reagent are added (here, the 7th day), 25 ul of different amplifier dilutions is also added to the various replicates. The protocol was otherwise the same.
The procedure of Example 6 was repeated with the modified protocol just described.

[5] = tested on: patient with AIDS or ARC, excessive immunoglobulin production; experiment: Titration of amplifier dosage, AIDS or ARC patient with elevated serum IgG; format: in vivo, human; conditions: 20 to 80 pg intradermal biweekly for eight weeks, 80 kg patient; before greater than 1400 mg/dl
Procedure: A patient suffers from AIDS or ARC, and they have an elevated serum immunoglobulin (IgG) level (greater than 1400 mg/dl), indicative to the attending physician of excessive immunoglobulin production. The physician considers it therapeutically desirable to lower the patient's level of immunoglobulin production.
(§1) The physician assays the patient's immunoglobulin response by the protocol of Examples 1-4, or alternative as in Example using ZB-4 (Beta-1.11). The patient weighs 80 kg. The physician therefore administers intradermal injections of 20 to 80 pg of ZB-4 (0.25 to 1 pg/kg of body weight) in sterile saline, biweekly, for eight weeks, and then retests. (The appropriate amount is determined by trial and error, and is subject to the physician's discretion. It is believed that 0.25 pg/kg is an appropriate starting point for such trial and error determination in the case of excessive Ig production.)

[6] = tested on: patient with common variable immunodeficiency, insufficient immunoglobulin production; experiment: Titration of amplifier dosage, patient with common variable immunodeficiency; format: in vivo, human; conditions: 20 to 80 pg intradermal biweekly for eight weeks, 80 kg patient; before 350 ml/dl
Procedure: A patient suffers from common variable immunodeficiency, and they have an lowered serum immunoglobulin (IgG) level ([…]), indicative to the attending physician of insufficient immunoglobulin production. The physician considers it therapeutically desirable to raise the patient's level of immunoglobulin production.
as §1, with “The” for “The physician assays the patient's immunoglobulin response by the protocol of Examples 1-4, or alternative as in Example using ZB-4 (Beta-1.11). The”, “that 1” for “that 0.25”, “of insufficient” for “of excessive”

Q: Which “effect on Ig levels” value [1] does the source give for Tyr-Gly-Gly [Beta-1.12] here?
A: Substantially the same results are observed as were observed in Example 10

Q: What about the “amount of Beta-1.0 with approximately the same immunological activity as 1 fg” value [2] of the same substance?
A: 5-10 fg

Q: Which results are given for Tyr-Gly [ZB-4]?
A: maximum PFC factor relative to control ([3]; at 100 to 150 pM): from about half again to double the control PFC factor; minimum PFC factor relative to control ([3]; between 1 and 10 pM): from about a quarter to a half the control PFC factor; concentration at maximum PFC factor [4]: 300 to 400 pM; maximum PFC factor relative to control [4]: slightly less than the control; minimum PFC factor [4]: approximately 35 % of the control PFC factor; effect on Ig levels [1]: Substantially the same results are observed as were observed in Example 10; serum immunoglobulin (IgG) level after treatment [5]: 1280 mg/dL; serum immunoglobulin level (IgG) after treatment [6]: 710 mg/dL; amount of Beta-1.0 with approximately the same immunological activity as 1 fg [2]: 5-10 fg
